According to patent US20090247766A1, “Substituted Nitrogen Heterocycles and Synthesis and Uses Thereof” (University of Southern California, priority 2008, published 2009):
Values after ≈ are worked out from the molar mass of the structure shown. Values joined by “and” are separate entries in the source; they are usually repeats but may differ in a detail not shown here. Identical values can stand only once.

What was measured:
Type in all cases: cell-based
HCT116 p53 −/− = assay: MTT cytotoxicity assay, HCT116 p53 -/-; conditions: replicate values
Method: (§1) IC50 was determined using an MTT assay.

MCF7 = assay: MTT cytotoxicity assay, MCF7; conditions: replicate values
Method: as §1

H29 = assay: MTT cytotoxicity assay, H29; conditions: replicate values
Method: as §1

Skov-3 = assay: MTT cytotoxicity assay, Skov-3; conditions: replicate values
Method: as §1

HCT116 p53 +/+ = assay: MTT cytotoxicity assay, HCT116 p53 +/+; conditions: replicate values
Method: as §1

MDA-MB 435 = assay: MTT cytotoxicity assay, MDA-MB 435
Method: For example, compound 1-[5-chloro-2-(4-methoxy-phenyl)-3-trifluoromethyl-indol-1-yl]-ethanone, prepared under Example 2 of the present application, has shown potential anticancer activity against several cancer cell lines.
as §1

[1] = Homo sapiens, HCT-116, MTT assay

## COc1ccc(-c2c(C(F)(F)F)c3cc(Cl)ccc3n2C(C)=O)cc1 [Example 2, 1-[5-chloro-2-(4-methoxy-phenyl)-3-trifluoromethyl-indol-1-yl]-ethanone]
HCT116 p53 −/−; [1]
  IC50: 13.2 µg/mL (≈ 35.9 µM)
HCT116 p53 −/−; MTT assay
  IC50 HCT116 p53 −/−: 8.4 µg/mL and 9.4 µg/mL and 9.2 µg/mL
MCF7; Homo sapiens, MCF7, MTT assay
  IC50: 18.8 µg/mL (≈ 51.1 µM)
MCF7; MTT assay
  IC50 MCF7: 18 µg/mL (≈ 48.9 µM)
H29
  IC50: 9.6 µg/mL (≈ 26.1 µM)
  IC50 H29: 9.8 µg/mL (≈ 26.6 µM)
Skov-3; Homo sapiens, SK-OV-3, MTT assay
  IC50: 15.8 µg/mL (≈ 43 µM)
Skov-3; MTT assay
  IC50 Skov-3: 17.2 µg/mL (≈ 46.8 µM)
HCT116 p53 +/+; [1]
  IC50: 14.5 µg/mL (≈ 39.4 µM)
HCT116 p53 +/+; MTT assay
  IC50 HCT116 p53 +/+: 15.4 µg/mL (≈ 41.9 µM)
MDA-MB 435; 10 micromolar (μM) concentration, MTT assay
  cytotoxicity against the MDA MB-435 cell line: 80.8%
MDA-MB 435; Homo sapiens, MDA-MB-435, MTT assay, replicate values
  IC50: 11.1 µg/mL (≈ 30.2 µM)
MDA-MB 435; MTT assay, replicate values
  IC50 MDA-MB 435: 8.5 µg/mL and 7.4 µg/mL and 9.6 µg/mL
